Measured values as given in patent US20210139507A1, “FUSED PYRIDINES WHICH ACT AS INHIBITORS OF H PGDS” (GlaxoSmithKline Intellectual Property Development Limited, priority 2017, published 2021).

Target: T1, hematopoietic prostaglandin D synthase (H-PGDS) (Homo sapiens, UniProt O60760)
T1 construct: Full length human H-PGDS cDNA (Invitrogen Ultimate ORF IOH13026) was amplified by PCR; 6-His (N); TEV protease cleavage site (N); made in house; host or cells: E. coli BL21 (DE3*), vector pET22b+
Experiment: H-PGDS RapidFire High Throughput Mass Spectrometry Assay
Type: biochemical
Conditions: conversion of PGH2 to PGD2 by human H-PGDS, 10 nM enzyme
Method: The H-PGDS RapidFire™ mass spectrometric assay monitors conversion of prostaglandin H2 (PGH2) to prostaglandin D2 (PGD2) by hematopoietic prostaglandin D synthase (H-PGDS). In the assay format described here, the substrate (PGH2) is formed in situ by the action of cyclooxygenase-2 on arachidonic acid. This first step is set up to be fast, and generates a burst of PGH2 at ˜10 μM. The PGH2 is then further converted to PGD2 by the H-PGDS enzyme. […] Plates are then read on the RapidFire™ high throughput solid phase extraction system (Agilent) which incorporates a solid phase extraction step coupled to a triple quadrupole mass spectrometer (AB SCIEX). Relative levels of PGD2 and PGF2α, which acts as a surrogate for substrate, are measured and a percent conversion calculated. Inhibitors are characterized as compounds which lower the conversion of PGH2 to PGD2.
Full length human H-PGDS cDNA (Invitrogen Ultimate ORF IOH13026) was amplified by PCR with the addition of a 5′ 6-His tag and TEV protease cleavage site. The PCR product was digested with NdeI and XhoI and ligated into pET22b+ (Merck Novagen®). Expression was carried out in E. coli strain BL21 (DE3*) using auto-induction Overnight Express™ Instant TB medium (Merck Novagen®) supplemented with 1% glycerol. The culture was first grown at 37° C. and the temperature was reduced to 25° C. when OD600 reached 2.0. Cells were harvested by centrifugation after a further 18 hours. 10 g of E. coli cell pellet was suspended to a total volume of 80 mL in lysis buffer (20 mM Tris-Cl pH 7.5, 300 mM NaCl, 20 mM imidazole, 5 mM β-mercaptoethanol, 10% glycerol). 1 mg/mL protease inhibitors (Protease Inhibitor Cocktail Set III, Merck Calbiochem®) and 1 mg/mL lysozyme were added to the cell suspension. The suspension was then sonicated for 5 min (Ultrasonic Processor VCX 750, Cole-Parmer Instrument Co.) with a micro probe (50% amplitude, 10 sec on/off) and then centrifuged at 100,000 g for 90 minutes (at 4° C.). The supernatant was loaded onto a Ni-NTA HiTrap column (5 mL, GE Healthcare, pre-equilibrated in lysis buffer). The column was washed with 10 column volumes of lysis buffer and eluted with lysis buffer containing 500 mM imidazole. The pooled protein peak fractions were concentrated using a 10 kDa centrifugal filter at 3500 g and 4° C. (Amicon Ultra-15 centrifugal filter unit with Ultracel-10 membrane from Millipore). Further purification of the concentrated protein was carried out using gel filtration chromatography on a HiLoad 26/600 Superdex75 preparative grade column (GE Healthcare Life Sciences) using 50 mM Tris pH 7.5, 50 mM NaCl, 1 mM dithiothreitol, 1 mM MgCl2. Fractions containing the protein were pooled, concentrated as described above, and stored at −80° C.
The full length human COX-2 gene (accession number L15326) was amplified by PCR to generate an EcoRI-Hindi 11 fragment containing an in-frame FLAG tag. This was subcloned into pFastBac 1 (Invitrogen). The COX-2 FLAG plasmid was recombined into the baculovirus genome according to the BAC-to-BAC protocol described by Invitrogen. Transfection into Spodoptera frugiperda (Sf9) insect cells was performed using Cellfectin (Invitrogen), according to the manufacturer's protocol. Super Sf9 cells were cultured in EX420 media (SAFC Biosciences) to a density of approximately 1.5×10^6 cells/mL within a wave bioreactor. Recombinant virus was added at a Multiplicity of Infection (MOI) of 5 and the culture was allowed to continue for 3 days. Cells were harvested using a continuous feed centrifuge run at 2500 g at a rate of approximately 2 L/min with cooling. The resultant cell slurry was re-centrifuged in pots (2500 g, 20 min, 4° C.) and the cell paste was stored at −80° C. 342 g of cell paste was re-suspended to a final volume of 1600 mL in a buffer of 20 mM Tris-Cl pH 7.4, 150 mM NaCl, 0.1 mM EDTA, 1.3% w/v n-octyl-β-D-glucopyranoside containing 20 Complete EDTA-free Protease Inhibitor Cocktail tablets (Roche Applied Science). […]

T1 sequence (O60760 whole entry): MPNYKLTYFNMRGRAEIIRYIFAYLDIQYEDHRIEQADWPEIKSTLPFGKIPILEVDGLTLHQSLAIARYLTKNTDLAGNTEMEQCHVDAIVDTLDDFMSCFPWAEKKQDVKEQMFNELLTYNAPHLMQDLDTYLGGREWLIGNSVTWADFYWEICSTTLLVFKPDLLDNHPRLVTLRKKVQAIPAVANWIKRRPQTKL

With “N-(trans-4-(2-Hydroxypropan-2-yl)cyclohexyl)-2-((1S,2R)-2-methylcyclopropyl)thieno[3,2-b]pyridine-6-carboxamide and N-(trans-4-(2-hydroxypropan-2-yl)cyclohexyl)-2-((1R,2S)-2-methylcyclopropyl)thieno[3,2-b]pyridine-6-carboxamide [Example 10]” the “Potency Range (mean pIC50)” value was “*** (*** = pIC50 7.1-8.0)”.
In the case of “2-Cyclopropyl-N-((3R,6S)-6-(2-hydroxypropan-2-yl)tetrahydro-2H-pyran-3-yl)thiazolo[4,5-b]pyridine-6-carboxamide and 2-Cyclopropyl-N-((3S,6R)-6-(2-hydroxypropan-2-yl)tetrahydro-2H-pyran-3-yl)thiazolo[4,5-b]pyridine-6-carboxamide [Example 24]”, the “Potency Range (mean pIC50)” value is reported as “** (** = pIC50 6.0-7.0)”.

Same assay, conditions: conversion of PGH2 to PGD2 by human H-PGDS, 10 nM enzyme; mean pIC50; read-out: Potency Range (mean pIC50) (converted)

Cn1nnnc1N1CCC(NC(=O)c2cnc3nc(C4CC4)sc3c2)CC1 [Example 31, 2-Cyclopropyl-N-(1-(1-methyl-1H-tetrazol-5-yl)piperidin-4-yl)thiazolo[4,5-b]pyridine-6-carboxamide] and O=C(N[C@H]1CC[C@H](O)CC1)c1cnc2nc(C3CC3)sc2c1 [Example 16, 2-Cyclopropyl-N-((trans)-4-hydroxycyclohexyl)thiazolo[4,5-b]pyridine-6-carboxamide] fall in the same range of IC50: 100 to 1000 nM for the first, 100 to 1000 nM for the second.

O=C(N[C@H]1CC[C@H](N2CC(F)(F)C2)CC1)c1cnc2nc(C3CC3)sc2c1 [Example 21, 2-Cyclopropyl-N-((trans)-4-(3,3-difluoroazetidin-1-yl)cyclohexyl)thiazolo[4,5-b]pyridine-6-carboxamide] and O=C(N[C@H]1CC[C@H](CO)CC1)c1cnc2nc(C3CC3)sc2c1 [Example 20, 2-Cyclopropyl-N-((trans)-4-(hydroxymethyl)cyclohexyl)thiazolo[4,5-b]pyridine-6-carboxamide] fall in the same range of IC50: 100 to 1000 nM for the first, 100 to 1000 nM for the second.

First: CC(C)(O)[C@H]1CC[C@H](NC(=O)c2cnc3nc(C4CCC4)sc3c2)CC1 [Example 14, 2-Cyclobutyl-N-((trans)-4-(2-hydroxypropan-2-yl)cyclohexyl)thiazolo[4,5-b]pyridine-6-carboxamide]
Second: CC(C)(O)[C@H]1CC[C@H](NC(=O)c2cnc3nc(N4CCC4)sc3c2)CC1 [Example 29, 2-(Azetidin-1-yl)-N-(trans-4-(2-hydroxypropan-2-yl)cyclohexyl)thiazolo[4,5-b]pyridine-6-carboxamide]
The IC50 of the first is lower: 10 to 79.4 nM for the first, 100 to 1000 nM for the second.

Compared with CC(C)N(c1nc2ncc(C(=O)N[C@H]3CC[C@H](C(C)(C)O)CC3)cc2s1)C(C)C [Example 37, 2-(Diisopropylamino)-N-(trans-4-(2-hydroxypropan-2-yl)cyclohexyl)thiazolo[4,5-b]pyridine-6-carboxamide], CN(C)c1nc2ncc(C(=O)N[C@H]3CC[C@H](C(C)(C)O)CC3)cc2s1 [Example 9] is lower in IC50: 1260 to 10000 nM for the first, 10 to 79.4 nM for the second.

CC(C)(F)c1nc2ncc(C(=O)N[C@H]3CC[C@H](C(C)(C)O)CC3)cc2s1 [Example 25, 2-(2-Fluoropropan-2-yl)-N-(trans-4-(2-hydroxypropan-2-yl)cyclohexyl)thiazolo[4,5-b]pyridine-6-carboxamide] and CC(C)(C)c1nc2ncc(C(=O)N[C@H]3CC[C@H](C(C)(C)O)CC3)cc2s1 [Example 27, 2-(tert-Butyl)-N-(trans-4-(2-hydroxypropan-2-yl)cyclohexyl)thiazolo[4,5-b]pyridine-6-carboxamide] fall in the same range of IC50: 100 to 1000 nM for the first, 100 to 1000 nM for the second.

First: CC(C)(O)[C@H]1CC[C@H](NC(=O)c2cnc3cc(C4CC4)sc3c2)CC1 [Example 2]
Second: CC(C)(O)[C@H]1CC[C@H](NC(=O)c2cnc3cc(Br)sc3c2)CC1 [Example 1]
The IC50 of the first is lower: 10 to 79.4 nM for the first, 100 to 1000 nM for the second.

CC(C)Nc1nc2ncc(C(=O)N[C@H]3CC[C@H](C(C)(C)O)CC3)cc2s1 [Example 5] and CNc1nc2ncc(C(=O)N[C@H]3CC[C@H](C(C)(C)O)CC3)cc2s1 [Example 7] fall in the same range of IC50: 100 to 1000 nM for the first, 100 to 1000 nM for the second.

O=C(NC1C[C@H](O)C[C@@H](O)C1)c1cnc2nc(C3CC3)sc2c1 (mixture of isomers) [Example 41, Racemic 2-cyclopropyl-N-((3S,5S)-3,5-dihydroxycyclohexyl)thiazolo[4,5-b]pyridine-6-carboxamide] and CC(C)(O)[C@H]1C[C@H](NC(=O)c2cnc3nc(C4CC4)sc3c2)C1 [Example 22, 2-Cyclopropyl-N-((trans)-3-(2-hydroxypropan-2-yl)cyclobutyl)thiazolo[4,5-b]pyridine-6-carboxamide] fall in the same range of IC50: 100 to 1000 nM for the first, 100 to 1000 nM for the second.

CC(C)(O)C12CC(NC(=O)c3cnc4nc(C5CC5)sc4c3)(C1)C2 [Example 13, 2-Cyclopropyl-N-(3-(2-hydroxypropan-2-yl)bicyclo[1.1.1]pentan-1-yl)thiazolo[4,5-b]pyridine-6-carboxamide] and O=C(N[C@H]1CCNC1=O)c1cnc2nc(C3CC3)sc2c1 [Example 19, (S)-2-Cyclopropyl-N-(2-oxopyrrolidin-3-yl)thiazolo[4,5-b]pyridine-6-carboxamide] fall in the same range of IC50: 100 to 1000 nM for the first, 100 to 1000 nM for the second.

First: O=C(N[C@H]1CC[C@H](C(O)C(F)(F)F)CC1)c1cnc2nc(C3CC3)sc2c1 (mixture of isomers) [Example 32, Racemic 2-Cyclopropyl-N-(trans-4-(2,2,2-trifluoro-1-hydroxyethyl)cyclohexyl)thiazolo[4,5-b]pyridine-6-carboxamide]
Second: CS(=O)(=O)CC(O)[C@H]1CC[C@H](NC(=O)c2cnc3nc(C4CC4)sc3c2)CC1 (mixture of isomers) [Example 28, Racemic 2-cyclopropyl-N-(trans-4-(1-hydroxy-2-(methylsulfonyl)ethyl)cyclohexyl)thiazolo[4,5-b]pyridine-6-carboxamide]
The IC50 of the first is lower: 10 to 79.4 nM for the first, 100 to 1000 nM for the second.

CN(c1nc2ncc(C(=O)N[C@H]3CC[C@H](C(C)(C)O)CC3)cc2s1)C(C)(C)C [Example 38, 2-(tert-Butyl(methyl)amino)-N-(trans-4-(2-hydroxypropan-2-yl)cyclohexyl)thiazolo[4,5-b]pyridine-6-carboxamide] and CC(C)c1nc2ncc(C(=O)N[C@H]3CC[C@H](C(C)(C)O)CC3)cc2s1 [Example 30, N-(trans-4-(2-Hydroxypropan-2-yl)cyclohexyl)-2-isopropylthiazolo[4,5-b]pyridine-6-carboxamide] fall in the same range of IC50: 100 to 1000 nM for the first, 100 to 1000 nM for the second.

CSc1nc2ncc(C(=O)N[C@H]3CC[C@H](C(C)(C)O)CC3)cc2s1 [Example 39, N-((trans)-4-(2-Hydroxypropan-2-yl)cyclohexyl)-2-(methylthio)thiazolo[4,5-b]pyridine-6-carboxamide] and C[C@H]1CCN1c1nc2ncc(C(=O)N[C@H]3CC[C@H](C(C)(C)O)CC3)cc2s1 [Example 34, N-(trans-4-(2-Hydroxypropan-2-yl)cyclohexyl)-2-((S)-2-methylazetidin-1-yl)thiazolo[4,5-b]pyridine-6-carboxamide] fall in the same range of IC50: 10 to 79.4 nM for the first, 10 to 79.4 nM for the second.

Compared with C[C@]1(O)C[C@@H](NC(=O)c2cnc3cc(C4CC4)sc3c2)C1 [Example 4], CC(N[C@H]1CC[C@H](NC(=O)c2cnc3nc(C4CC4)sc3c2)CC1)C(F)F (relative stereo) [Example 23, 2-Cyclopropyl-N-(trans-4-((1,1-difluoropropan-2-yl)amino)cyclohexyl)thiazolo[4,5-b]pyridine-6-carboxamide] is lower in IC50: 1260 to 10000 nM for the first, 100 to 1000 nM for the second.
